Experimental data reported in US20130337453A1, “EXTRACELLULAR MITOCHONDRIA-BASED SCREENING AND TREATMENT” (TUFTS UNIVERSITY, priority 2010, published 2013).
“Also recorded” adds a separate entry of the source.

What was measured:
LAD2 cells [1] = assay: Pre-stored TNF secretion measured by ELISA; type: cell-based, human; conditions: MDIVI-1 40 μM pretreatment; SP 1 and 2 μM, vs SP alone
Method: (§1) FIG. 2 illustrates that SP-stimulated degranulation and pre-stored TNF secretion is blocked by the mitochondrial fission protein Drp1 inhibitor (MDIVI-1) and Drp1-silencing siRNA. LAD2 cells were treated with MDIVI-1 (40 μM) for 15 min at 37° C. FIG. 2A: Mitochondrial morphology was evaluated by Confocal microscopy in normal LAD2 cells with or without stimulation with SP (2 μM, 30 min, 37° C.). Left panels represent granules; middle panels show mitochondria and the right panels are merged from the previous two. The images shown are representative of more than 40 cells studied. […] LAD2 cells were pretreated with MDIVI-1 (40 μM) for 30 min and then stimulated with SP (1 or 2 μM) for 30 min at 37° C. β-hexosaminidase was measured spectrophotometrically and TNF was measured by ELISA.
(§2) In order to rule out the possibility that mitochondrial translocation at the cell surface is a bystander effect secondary to cell shape changes during degranulation, the function of Drp1 in mast cell degranulation was investigated. Pretreatment of LAD2 mast cells with the mitochondria] Drp1 inhibitor MDIVI-1 at 40 μM for 15 min at 37° C. (Cassidy-Stone, et al. 2008, Dev. Cell 14:193-204) inhibited mitochondrial translocation (FIG. 2A) despite addition of SP (2 μM for 30 min).

LAD2 cells [2] = assay: SP-triggered beta-hexosaminidase release (degranulation index); type: cell-based, human; conditions: MDIVI-1 40 μM pretreatment; SP 1 and 2 μM, vs SP alone
Method: as §1, §2

LAD2 cells [3] = assay: Mitochondrial translocation in live mast cells by confocal microscopy (MitoTracker/LysoTracker); type: cell-based, human
Method: LAD2 cells, mast cells derived from a human leukemia patient,were stained with MitoTracker probe (20 nM) for 20 min (middle panels) and LysoTracker DND probe (50 nM) for 30 min (left panels). The cells were then moved to glass bottom culture dishes and observed by TSC SP2 Confocal microscopy. […] The left panels show granules in green. The middle panels represent mitochondria florescence. The right panels represent images merged from the two previous panels. […] Merged images (as described above) of 100 cells randomly selected from each experiment (n=3) are scored by three different operators each time. […] Confocal images from 19 resting cells and 20 degranulating cells (SP 2 μM, 30 min) were randomly selected for analysis. Mitochondria numbers were calculated by ImageJ software using a “mitochondria calculator” plugin.
as §1
Very few mitochondria could be found in the cell surface region. It is almost impossible to distinguish individual mitochondria from this pool by confocal microscopy. Since the average pH of mast cell secretory granules is 5.5, LysoTracker (left panels) was used as a dye to stain the granules. After SP (2 μM) stimulation for 30 min at 37° C., mast cells underwent rapid degranulation, during which mitochondrial particles translocate throughout the cell (FIG. 1A). […]

LAD2 cells [4] = assay: Mitochondria-induced degranulation (beta-hex release) after P2X7 receptor inhibitor pre-treatment; type: cell-based, human; conditions: pre-incubation 30 min; beta-hex release 30 min after stimulation
Method: FIG. 10 illustrates that mt component activation of LAD2 cells is P2X7-receptor-dependent. LAD2 cells were pre-treated with P2X7 receptor inhibitor for 30 min and then stimulated with mt components. Different concentration of CpG-ODN [ISOLATED fomyl-peptides?] was used to stimulated LAD2 cells (FIG. 10A). LAD2 cells were treated with a P2X7 receptor inhibitor (FIG. 10B). Beta-hex release was measured 30 mins after stimulation. (n=3; *p<0.05, compared to control). FIG. 10C: live LAD2 cells were stained with stained with Fura-2to measure intracellular calcium changes in response to different concentrations of mt components.
We then investigated which components from sonicated mitochondria may activate LAD2 cells. ATP has been reported to stimulated human mast cell degranulation (Cohen et al., 2001, Biochemistry 40:6589-97). Therefore, we tested if inhibition of P2X7 receptors, the primary receptor of ATP, can block the effects of mitochondrial components.

[5] = test system: murine mast cell line and isolated murine peritoneal mast cells; conditions: SP 0.01 to 1 μM; not IL-1, IL-3, IL-4, IL-6 or GM-CSF; cited from earlier work
LAD2 cells [6] = conditions: SP 1 or 2 μM for 30 min (Kulka 2007); cited from earlier work
LAD2 cells [7] = assay: ATP and Cytochrome C in supernatant fluid of stimulated cells; type: cell-based, human; conditions: SP-stimulated LAD2 cells
[8] = test system: isolated cardiac cell mitochondria; conditions: SP concentrations higher than 1 μM; cited from earlier work
human skin mast cells [9] = conditions: cited from earlier work
human skin mast cells [10] = assay: Transmission electron microscopy of mitochondria in skin mast cells; type: cell-based
Description: Mitochondria are shown within white rectangles. White asterisks represent released granular materials. FIG. 5B charts the number of mitochondria visible under electron microscope and FIG. 5C charts the percentage of mitochondria close to the cell surface in each cell as semi-quantitated from high magnification glossy prints by three independent operators. Magnification: 13,800×; (n=3; *p<0.05 compared to control).
Observations using Transmission Electron Microscopy (TEM) (Theoharides, et al. 1998, Endocrinology 139:403-13) indicate translocation of mitochondria particles to sites of exocytosis. Mitochondria of unstimulated human skin mast cells are located around the cell nucleus and appear intact (FIG. 5A, left side). On the contrary, mitochondria of activated mast cells are much smaller than mitochondria from control cells and are located close to secretory granules undergoing exocytosis (FIG. 5A, right side).

LAD2 cells [11] = assay: mtDNA (Mt-7s, Mt-CytB) in supernatant fluid by real-time PCR; type: cell-based, human; conditions: 10 μM SP, 60 minutes
Method: Cell viability (D) was measured by Tulubin-Blue staining.
The amount of these two genes, MT-7s DNA and MT-CytB, which are unique to mtDNA and not present in regular human genomic DNA, increased 200 times in SP-stimulated cells (10 μM SP) compared with that in the control as detected by real-time PCR (FIG. 7A). In contrast, genomic DNA for glyceraldehyde 3-phosphate dehydrogenase (GAPDH) is not detected (Hu, VIC TAMRA, data not shown).

Drp1 = assay: Western blot of Drp1 phosphorylation at Ser-616; type: cell-based, human; conditions: SP 2 μM for 30 min, LAD2 mast cells
Description: Antibodies against the Ser-616 phosphorylated form of Drp1 was purchased from Cell Signaling based in Massachusetts, USA.
To confirm the involvement of Drp1, the State of phosphorylation of Drp1 at the amino acid serine-616 (Ser-616) was investigated through western blot analysis.

rat mast cells = rat mast cells (Sengoku 2000); cited from earlier work
[12] = test system: peripheral sensory neurons; conditions: Inagaki 2010; cited from earlier work
mouse model of AD = mouse model of AD (Inagaki 2010); cited from earlier work

With COc1cc(-n2c(=S)[nH]c3ccccc3c2=O)c(Cl)cc1Cl [MDIVI-1] as the compound, how does the “secretion of pre-stored TNF” value (LAD2 cells [1]) read?
Its value is “significantly inhibited”.

What about the “SP-triggered β-hexosaminidase release” value (LAD2 cells [2]) of the same compound?
Its value is “significantly inhibited; also recorded: significant inhibition”.

What about the mitochondrial translocation (LAD2 cells [3]; MDIVI-1 40 μM pretreatment 15 min, 37° C., SP 2 μM for 30 min) of the same compound?
Its mitochondrial translocation is “inhibited”.

Which “block of mitochondria-induced degranulation” value (LAD2 cells [4]) does the source give for Cl.Clc1cccc(-c2nnnn2Cc2cccnc2)c1Cl.O [A-438079 hydrochloride hydrate] here?
Its value is 40%.

With CSCC[C@H](NC(=O)[C@H](CC(C)C)NC(=O)CNC(=O)[C@H](Cc1ccccc1)NC(=O)[C@H](Cc1ccccc1)NC(=O)[C@H](CCC(N)=O)NC(=O)[C@H](CCC(N)=O)NC(=O)[C@@H]1CCCN1C(=O)[C@H](CCCCN)NC(=O)[C@@H]1CCCN1C(=O)[C@@H](N)CCCNC(=N)N)C(N)=O [SP, Substance P] as the compound, how does the “gene expression and release of cytokines” value [5] read?
The value was “induce selective gene expression and release of TNF”.

And the “degranulation of pre-stored TNF” value (LAD2 cells [6])?
Its value is “activates degranulation”.

And the “Cytochrome C (Cyt C) in supernatant fluid” value (LAD2 cells [7])?
Its value is “marked increase”.

And the “ATP level in supernatant fluid” value (LAD2 cells [7]; dosage-dependent on SP)?
The value was “marked increase”.

And the “rate of oxygen consumption” value [8]?
Its value is “enhance”.

And the “de novo TNF gene expression and release” value (human skin mast cells [9]; SP 0.3-30 μM (Okayama 1998))?
The value was “selectively induced only de novo TNF gene expression and release”.

What about the “histamine and TNF release” value (human skin mast cells [9]; SP 0.8-100 ηM) of the same compound?
The value was “induced histamine and de novo synthesized TNF release”.

And the “number of mitochondria visible under the electron microscope” value (human skin mast cells [10]; SP-activated skin mast cells vs control)?
The value was “increased significantly”.

And the “percentage of mitochondria translocated close to cell surface” value (human skin mast cells [10]; SP-activated skin mast cells, control 25%)?
Its value is 75%.

And the “increase in percentage of mitochondria translocated close to cell surface” value (human skin mast cells [10]; SP-activated vs control (25% to 75%))?
Its value is 200%.

And the “amount of MT-7s DNA and MT-CytB in supernatant, increase vs control” value (LAD2 cells [11])?
Its value is 200 times.

And the “percentage of LAD2 cells containing mitochondria undergoing translocation” value (LAD2 cells [3]; SP 2 μM, 30 min, 37° C., 20% in control cells)?
The value was “about 55%”.

And the “number of mitochondria close to the cell surface” value (LAD2 cells [3]; after SP stimulation (2 μM, 30 min), ImageJ count)?
Its value is “significant increase”.

What about the “Drp1 phosphorylation at Ser-616” value (Drp1) of the same compound?
The value was “Drp1 phosphorylation”.

For C=CC[C@@H]1/C=C(\C)C[C@H](C)C[C@H](OC)[C@H]2O[C@@](O)(C(=O)C(=O)N3CCCC[C@H]3C(=O)O[C@H](/C(C)=C/[C@@H]3CC[C@@H](O)[C@H](OC)C3)[C@H](C)[C@@H](O)CC1=O)[C@H](C)C[C@@H]2OC [FK506, tacrolimus], which “secretion of IgE-induced histamine” value (rat mast cells) is on record?
The value was “inhibit”.

And the “SP content of peripheral sensory neurons” value [12]?
The value was “deplete”.

And the pruritus (mouse model of AD)?
Its pruritus is “prevent”.
